Measurements published in US9314540B2, “Compounds for use in imaging, diagnosing and/or treatment of diseases of the central nervous system” (PIRAMAL IMAGING SA, priority 2010, dated 2016).

Legend:
[1] = Biodistribution in NMRI mice, brain radioactivity by gamma counter; type: in vivo; conditions: for brain uptake of radioactivity (peak): 2 min p.i.
Procedure: FIG. 1: Distribution of [^18F] D2 Deprenyl (compound of Example 3) detected via a gamma-detector is shown in a time frame of 4 hours in mouse brains (n=3).
Biodistribution of [^18F] D2 Deprenyl (compound of Example 3) was investigated in NMRI mice weighing 31.1-38.5 g at seven time points. For each time point 3 mice were used. The mice were injected each with 0.256 MBq [^18F] D2 Deprenyl. After the respective time points the mice were sacrificed, the organs taken out and measured in a gamma counter. The results were decay corrected. […] Unexpectedly, the elimination ratio defined by peak uptake at 2 min to uptake at 30 min was 4.2 times. This is improved over the non-deuterated compound where said ratio was 3.6 (Peak: 7.5±0.04% ID/g at 2 min p.i. and 2.10±0.33% ID/g at 30 min p.i.) and will add to a better brain image quality. Therefore, an improved diagnostic performance can be expected.

[2] = Plasma radioactivity and metabolite profile over time in cynomolgus monkey plasma; type: in vivo
From the text: D2 Deprenyl and non-deuterated [^18F] Deprenyl in cynomolgus monkey plasma.
D2 Deprenyl and (b) non-deuterated [^18F] Deprenyl in cynomolgus monkey plasma. The time course of the parent compounds as well as metabolites expressed in [area %] generated from respective HPLC chromatograms are shown.
Plasma radioactivity metabolic profiles have been monitored over time for [^18F] D2 Deprenyl compared to the non-deuterated [^18F] Deprenyl in cynomolgus monkey plasma (FIG. 3). […] D2 Deprenyl in plasma the radioactivity for [^18F] D2 Deprenyl was 18% and 31% higher as observed for [^18F] Deprenyl at the 30 and 60 min time points, respectively (FIG. 3). In addition, metabolites occurring in cynomolgus monkey plasma over time have been monitored for both ligands (FIG. 4). […] Deprenyl. Specifically metabolite M1 was less produced (FIG. 4a). In addition, time activity curves (TAC) of [^18F] […] This gives more flexibility regarding quantification of the PET data and is, thus, an advantage.

[3] = target: T1, human MAO-B (Homo sapiens, UniProt P27338); experiment: Amplex Red Monoamine Oxidase Assay-Kit, MAO-B affinity; type: biochemical; conditions: human MAO-B from baculovirus-infected insect cells; read-out: affinity towards MAO-B, IC50
T1 construct: purchased Sigma; host or cells: insect cells infected with recombinant baculovirus
T1 sequence (P27338 1-520): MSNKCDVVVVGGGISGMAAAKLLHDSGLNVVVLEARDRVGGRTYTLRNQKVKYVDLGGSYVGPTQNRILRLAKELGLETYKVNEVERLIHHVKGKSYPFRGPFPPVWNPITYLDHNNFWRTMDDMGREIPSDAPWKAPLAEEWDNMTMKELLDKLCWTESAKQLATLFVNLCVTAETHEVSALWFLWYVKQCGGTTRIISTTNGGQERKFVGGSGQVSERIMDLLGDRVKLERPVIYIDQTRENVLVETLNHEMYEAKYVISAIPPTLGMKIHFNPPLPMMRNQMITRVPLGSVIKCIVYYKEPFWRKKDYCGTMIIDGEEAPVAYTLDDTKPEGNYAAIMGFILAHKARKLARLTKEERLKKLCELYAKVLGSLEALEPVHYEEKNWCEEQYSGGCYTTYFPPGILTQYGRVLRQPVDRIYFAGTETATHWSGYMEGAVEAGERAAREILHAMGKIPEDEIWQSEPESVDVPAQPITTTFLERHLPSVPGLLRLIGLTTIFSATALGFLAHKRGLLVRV
Procedure: [^19F] […] This was determined by incubating human MAO-B prepared from insect cells infected with recombinant baculovirus containing respective cDNA inserts (Sigma) with respective reagents of the Amplex Red Monoamine Oxidase Assay-Kit (Molecular Probes).

[4] = target: T2, MAO-A (Homo sapiens, UniProt P21397); experiment: Amplex Red Monoamine Oxidase Assay-Kit, MAO-A affinity; type: biochemical; conditions: read-out: affinity towards MAO-A
T2 sequence (P21397 1-527): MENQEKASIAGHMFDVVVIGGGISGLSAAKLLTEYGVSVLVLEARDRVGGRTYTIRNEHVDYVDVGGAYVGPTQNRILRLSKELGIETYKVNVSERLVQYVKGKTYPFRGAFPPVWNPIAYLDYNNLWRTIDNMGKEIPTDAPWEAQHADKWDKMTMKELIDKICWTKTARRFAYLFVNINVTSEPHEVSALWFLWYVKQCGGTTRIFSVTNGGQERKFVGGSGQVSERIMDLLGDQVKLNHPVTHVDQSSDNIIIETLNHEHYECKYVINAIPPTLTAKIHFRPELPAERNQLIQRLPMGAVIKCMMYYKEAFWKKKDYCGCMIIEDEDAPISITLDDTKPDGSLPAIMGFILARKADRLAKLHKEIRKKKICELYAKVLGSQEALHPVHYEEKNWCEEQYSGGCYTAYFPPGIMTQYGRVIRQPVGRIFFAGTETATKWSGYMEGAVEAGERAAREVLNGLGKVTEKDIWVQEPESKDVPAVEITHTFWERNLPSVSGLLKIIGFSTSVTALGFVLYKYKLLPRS

[5] = In vitro metabolite profile in liver microsomes and hepatocytes (LC/MS); type: in vitro ADME, rat, mouse and human; conditions: for oxidation at the propargyl moiety (M-7) as additional metabolic pathway: microsome and hepatocyte incubations; for major metabolic pathway: rat, mouse and human liver microsomes, human and rat hepatocytes
From the text: FIG. 9: In vitro metabolite pathways in rat, mouse, dog, monkey and human microsomes and rat and human heaptocyte preparations. The metabolites were detected by LC/MS. (a) Metabolite pathways of non-deuterated [^18F] Deprenyl and (b) Metabolite pathways of [^18F] D2 Deprenyl.
[^18F] D2 Deprenyl and [^19F] D2 Deprenyl have been investigated regarding their metabolic properties in vitro and in vivo. […] D2 Deprenyl (FIG. 9).

SMILES	elimination ratio, peak uptake at 2 min to uptake at 30 min [1]	brain uptake of radioactivity (peak) [1] [% ID/g]	brain radioactivity ([1]; 30 min p.i.) [% ID/g]	brain radioactivity ([1]; 4 hours p.i.) [% ID/g]	formation of metabolite M1 compared to non-deuterated [18F] Deprenyl [2]	stability in plasma compared to non-deuterated [18F] Deprenyl [2]	plasma radioactivity higher than for [18F] Deprenyl ([2]; 30 min) [%]	plasma radioactivity higher than for [18F] Deprenyl ([2]; 60 min) [%]	IC50 [3] [nM]	IC50 [4] [nM]	oxidation at the propargyl moiety (M-7) as additional metabolic pathway [5]	major metabolic pathway [5]
[2H]C([2H])(C#C)N(C)[C@H](CF)Cc1ccccc1 [[^18F] D2 Deprenyl, N-[(2S)-1-[^18F]fluoro-3-phenylpropan-2-yl]-N-methyl(1,1-^2H2)— prop-2-yn-1-amine]	4.2	6.03±1.09	1.44±0.15	0.91±0.09	less produced	more stable	18	31	–	–	–	–
[2H]C([2H])(C#C)N(C)[C@H](CF)Cc1ccccc1 [[^19F] D2 Deprenyl, N-[(2S)-1-fluoro-3-phenylpropan-2-yl]-N-methyl(1,1-^2H)prop-2-yn-1-amine]	–	–	–	–	–	–	–	–	41.3	> 2000	not detectable any more	N-dealkylation
C#CCN(C)[C@H](C[18F])Cc1ccccc1 [non-deuterated compound, reference compound]	3.6	7.5±0.04	2.10±0.33	–	–	–	–	–	–	–	observed	N-dealkylation
